From US20250073251A1, “COMPOSITIONS AND METHODS AND USES THEREOF” (Journey Medical Corporation, priority 2019, published 2025)
Several values for one entry are separate records, joined by “and”; a condition that tells them apart may be missing. Equal entries are not always repeated. Structures can show the parent of a compound that is named as a salt. Blank lines part the entries; values can stand above or below the compound they belong to.

Tests used:
[1] = Toxicokinetics after daily dermal application
in vivo = settings: both, Göttingen, minipig, plasma, topical or ocular
[2] = tested on: moderate-to-severe acne vulgaris; settings: human, in vivo

Cmax (in vivo): 17.4 ng/mL
Structure (SMILES): CN(C)c1ccc(O)c2c1C[C@H]1C[C@H]3[C@H](N(C)C)C(O)=C(C(N)=O)C(=O)[C@@]3(O)C(O)=C1C2=O [minocycline, minocycline hydrochloride]
systemic exposure, dependence on sex ([1]; Day 91): independent of sex
Tmax ([1]; Group 6, minocycline […] + adapalene […] FCD105 Foam, Day 1, minimum-maximum (median not reported)): (4-8) hr
Tmax ([1]; Group 6, minocycline […] + adapalene […] FCD105 Foam, Day 91, minimum-maximum (median not reported)): (0-8) hr
Tmax ([1]; Göttingen, minipig, plasma, topical or ocular, […], Tmax, Group 4, minocycline […] + adapalene […] FCD105 Foam, Day 1, median): 4 h
Tmax ([1]; Göttingen, minipig, plasma, topical or ocular, […], Tmax, Group 4, minocycline […] + adapalene […] FCD105 Foam, Day 91, median): 2 h
Tmax ([1]; Göttingen, minipig, plasma, topical or ocular, […], Tmax, Group 5, minocycline […] + adapalene […] FCD105 Foam, Day 1, median): 24 h
Tmax ([1]; Göttingen, minipig, plasma, topical or ocular, […], Tmax, Group 5, minocycline […] + adapalene […] FCD105 Foam, Day 91, median): 2 h

Structure (SMILES): COc1ccc(-c2ccc3cc(C(=O)O)ccc3c2)cc1C12CC3CC(CC(C3)C1)C2 [adapalene]
mean Cmax and AUC0-24hr for adapalene versus dose ([1]; 0.25 to […] adapalene with […] minocycline, Day 91): approximately dose proportional
systemic exposure, dependence on sex ([1]; Day 91): independent of sex
Tmax ([1]; Group 3, adapalene […] alone, daily dermal, Day 91, minimum-maximum (median not reported)): (0-8) hr
Tmax ([1]; Group 4, adapalene […] + minocycline […] FCD105 Foam, Day 1, minimum-maximum (median not reported)): (8-24) hr
Tmax ([1]; Group 4, adapalene […] + minocycline […] FCD105 Foam, Day 91, minimum-maximum (median not reported)): (0-24) hr
Tmax ([1]; Göttingen, minipig, plasma, topical or ocular, […], Tmax, Group 3, adapalene […] alone, daily dermal, Day 1, median): 24 h
Tmax ([1]; Göttingen, minipig, plasma, topical or ocular, […], Tmax, Group 5, adapalene […] + minocycline […] FCD105 Foam, Day 1, median): 24 h
Tmax ([1]; Göttingen, minipig, plasma, topical or ocular, […], Tmax, Group 5, adapalene […] + minocycline […] FCD105 Foam, Day 91, median): 1 h
Tmax ([1]; Göttingen, minipig, plasma, topical or ocular, […], Tmax, Group 6, adapalene […] + minocycline […] FCD105 Foam, Day 1, median): 24 h
Tmax ([1]; Göttingen, minipig, plasma, topical or ocular, […], Tmax, Group 6, adapalene […] + minocycline […] FCD105 Foam, Day 91, median): 1 h

Abdominal pain [2]: 0 subjects (%)
Acne, (%) of subjects [2]: (1.8%)
Buming sensation [2]: 0 subjects (%)
Burning and Stinging: Severe, subjects n (%) [2]: 0
Burning sensation [2]: 0 subjects (%)
Constipation [2]: 0 subjects (%)
Dehydration [2]: 0 subjects (%)
Dermatitis contact [2]: 0 subjects (%)
Dryness: Mild, subjects n (%) [2]: 27 (24.1%) and 26 (24.8%) and 17 (17.2%)
Dryness: Severe, subjects n (%) [2]: 0
Erythema: Severe, subjects n (%) [2]: 1 (0.9%) and 2 (1.9%) and 1 (1.0%)
Hyperaesthesia [2]: 0 subjects (%)
Hyperpigmentation: Moderate, subjects n (%) [2]: 4 (3.8%) and 4 (4.0%) and 6 (5.4%)
Hyperpigmentation: Severe, subjects n (%) [2]: 0
Immune system disorders [2]: 0 subjects (%)
Infectious mononucleosis [2]: 0 subjects (%)
Ligament rupture [2]: 0 subjects (%)
Metabolism and nutrition disorders [2]: 0 subjects (%)
Nail discolouration [2]: 0 subjects (%)
Nasopharyngitis [2]: 0 subjects (%)
Nausea [2]: 0 subjects (%)
Neoplasms benign, malignant and unspecified (incl cysts and polyps) [2]: 0 subjects (%)
Oropharyngeal pain [2]: 0 subjects (%)
Otitis media acute [2]: 0 subjects (%)
Pain [2]: 0 subjects (%)
Pain of skin [2]: 0 subjects (%)
Paranasal sinus discomfort [2]: 0 subjects (%)
Pharyngitis streptococcal [2]: 0 subjects (%)
Pyogenic granuloma [2]: 0 subjects (%)
Rash, (%) of subjects [2]: (0.9%)
Rhinorrhoea [2]: 0 subjects (%)
Scaling: Severe, subjects n (%) [2]: 0
Sciatica [2]: 0 subjects (%)
Seasonal allergy [2]: 0 subjects (%)
Toothache [2]: 0 subjects (%)
Vomiting [2]: 0 subjects (%)
Weight, Max [2]: 43.5, 163.3 kg and 43.5, 166.0 kg
Weight, Mean [2]: 77.06 kg and 77.28 kg
Weight, Median [2]: 71.10 kg and 71.50 kg
Weight, Min [2]: 43.5, 163.3 kg and 43.5, 166.0 kg
Structure (SMILES): COc1ccc(-c2ccc3cc(C(=O)O)ccc3c2)cc1C12CC3CC(CC(C3)C1)C2 [0.3% adapalene foam]
AE Maximum Severity: Mild [2]: 14 (12.5%)
AE Maximum Severity: Moderate [2]: 4 (3.6%)
AE Maximum Severity: Severe [2]: 2 (1.8%)
Burning and Stinging: None, subjects n (%) [2]: 82 (78.1%) and 97 (92.4%) and 89 (89.9%) and 105 (93.8%)
Diastolic Blood Pressure, Max [2]: 58, 98 mmHg and 56, 93 mmHg and 57, 94 mmHg and 48, 94 mmHg
Diastolic Blood Pressure, Mean [2]: 73.1 mmHg and 72.8 mmHg and 72.1 mmHg
Diastolic Blood Pressure, Median [2]: 72.0 mmHg
Diastolic Blood Pressure, Min [2]: 58, 98 mmHg and 56, 93 mmHg and 57, 94 mmHg and 48, 94 mmHg
Dryness: None, subjects n (%) [2]: 82 (73.2%) and 75 (71.4%) and 77 (73.3%) and 81 (81.8%)
Erythema: Mild, subjects n (%) [2]: 36 (32.1%) and 27 (25.7%) and 36 (34.3%) and 27 (27.3%)
Erythema: None, subjects n (%) [2]: 51 (45.5%) and 55 (52.4%) and 58 (55.2%) and 62 (62.6%)
Heart Rate, Max [2]: 52, 100 beats/min and 52, 99 beats/min and 51, 99 beats/min and 52, 96 beats/min
Heart Rate, Mean [2]: 75.9 beats/min and 76.1 beats/min and 75.7 beats/min and 74.1 beats/min
Heart Rate, Median [2]: 73.0 beats/min and 77.0 beats/min and 76.0 beats/min
Heart Rate, Min [2]: 52, 100 beats/min and 52, 99 beats/min and 51, 99 beats/min and 52, 96 beats/min
Hyperpigmentation: Mild, subjects n (%) [2]: 20 (19.0%) and 19 (19.2%) and 31 (27.7%) and 22 (21.0%)
Hyperpigmentation: None, subjects n (%) [2]: 81 (77.1%) and 76 (76.8%) and 75 (67.0%) and 79 (75.2%)
Itching: None, subjects n (%) [2]: 87 (77.7%) and 79 (75.2%) and 86 (81.9%) and 86 (86.9%)
Number (%) of subjects withdrawn from study due to TEAE [2]: 3 (2.7%) subjects (%)
Number (%) of subjects withdrawn from study due to treatment-related TEAE [2]: 3 (2.7%) subjects (%)
Scaling: Mild, subjects n (%) [2]: 21 (18.8%) and 19 (18.1%) and 17 (16.2%) and 12 (12.1%)
Scaling: Moderate, subjects n (%) [2]: 2 (1.8%) and 3 (2.9%) and 2 (1.9%) and 3 (3.0%)
Scaling: None, subjects n (%) [2]: 89 (79.5%) and 83 (79.0%) and 86 (81.9%) and 84 (84.8%)
Serious AE [2]: 0
Subjects reporting at least one treatment-related TEAE [2]: 10 (8.9%) subjects (%)
Subjects with any TEAE leading to discontinuation of study drug [2]: 3 (2.7%)
Subjects with at least one AE [2]: 20 (17.9%)
Systolic Blood Pressure, Max [2]: 92, 150 mmHg and 96, 150 mmHg and 95, 152 mmHg and 92, 149 mmHg
Systolic Blood Pressure, Mean [2]: 116.7 mmHg
Systolic Blood Pressure, Min [2]: 92, 150 mmHg and 96, 150 mmHg and 95, 152 mmHg and 92, 149 mmHg
TEAE: Abdominal pain [2]: 0
TEAE: Acne [2]: 2 (1.8%)
TEAE: Acute sinusitis [2]: 1 (0.9%)
TEAE: Burning sensation [2]: 0
TEAE: Burns first degree [2]: 1 (0.9%)
TEAE: Constipation [2]: 0
TEAE: Cough [2]: 1 (0.9%)
TEAE: Dehydration [2]: 0
TEAE: Dermatitis contact [2]: 0
TEAE: Diarrhoea [2]: 1 (0.9%)
TEAE: Dry skin [2]: 4 (3.6%)
TEAE: Eczema [2]: 1 (0.9%)
TEAE: Erythema of eyelid [2]: 1 (0.9%)
TEAE: Eye disorders [2]: 3 (2.7%)
TEAE: Eye irritation [2]: 2 (1.8%)
TEAE: Facial bones fracture [2]: 1 (0.9%)
TEAE: Gastrointestinal disorders [2]: 1 (0.9%)
TEAE: General disorders and administration site conditions [2]: 1 (0.9%)
TEAE: Headache [2]: 2 (1.8%)
TEAE: Hordeolum [2]: 1 (0.9%)
TEAE: Hyperaesthesia [2]: 0
TEAE: Immune system disorders [2]: 0
TEAE: Infections and infestations [2]: 8 (7.1%)
TEAE: Infectious mononucleosis [2]: 0
TEAE: Injury, poisoning and procedural complications [2]: 2 (1.8%)
TEAE: Ligament rupture [2]: 0
TEAE: Ligament sprain [2]: 1 (0.9%)
TEAE: Metabolism and nutrition disorders [2]: 0
TEAE: Nail discolouration [2]: 0
TEAE: Nasopharyngitis [2]: 0
TEAE: Nausea [2]: 0
TEAE: Neoplasms benign, malignant and unspecified (incl cysts and polyps) [2]: 0
TEAE: Nervous system disorders [2]: 2 (1.8%)
TEAE: Oropharyngeal pain [2]: 0
TEAE: Otitis media acute [2]: 0
TEAE: Pain [2]: 0
TEAE: Pain of skin [2]: 0
TEAE: Pharyngitis [2]: 1 (0.9%)
TEAE: Pharyngitis streptococcal [2]: 0
TEAE: Pyogenic granuloma [2]: 0
TEAE: Rash [2]: 2 (1.8%)
TEAE: Respiratory, thoracic and mediastinal disorders [2]: 1 (0.9%)
TEAE: Rhinorrhoea [2]: 0
TEAE: Sciatica [2]: 0
TEAE: Seasonal allergy [2]: 0
TEAE: Sinusitis [2]: 1 (0.9%)
TEAE: Skin discolouration [2]: 1 (0.9%)
TEAE: Skin irritation [2]: 1 (0.9%)
TEAE: Staphylococcal infection [2]: 1 (0.9%)
TEAE: Toothache [2]: 0
TEAE: Upper respiratory tract infection [2]: 1 (0.9%)
TEAE: Viral upper respiratory tract infection [2]: 1 (0.9%)
TEAE: Vomiting [2]: 0
Treatment-Related AE [2]: 10 (8.9%)
Withdrawal from Study, Primary Reason: Adverse Event, % of subjects [2]: 3 (2.7%)
Withdrawal from Study, Primary Reason: Adverse Event, number of subjects [2]: 3 (2.7%)
adverse events assessed as mild in severity [2]: 12.5%
dry skin adverse event [2]: 3.6%
overall tolerability (LSTA) scores compared to the other treatment groups [2]: lower
subject discontinuations due to a treatment emergent adverse event [2]: 2.7%
subjects with TEAEs that led to discontinuation of study drug [2]: 3 subjects
subjects with severe (treatment related) TEAE [2]: 1.8%
treatment emergent adverse events, frequency [2]: 8.9%
TEAE: Skin and subcutaneous tissue disorders ([2]; sc): 10 (8.9%)
